8 molecules from US11174240B2, “Crystalline solid compound of 3-phenyl-4-propyl-1-(pyridin-2-yl)-1H-pyrazol-5-ol hydrochloride” (Aptabio Therapeutics Inc., priority 2017, dated 2021) can be followed below.

Holding throughout (assay type): physicochemical
Series [1] can be described thus: Hygroscopicity test (Karl-Fischer water content under accelerated storage). The note with it: for Water content (%) 1 day: 1 day at 40° C. / 75% relative humidity; for Water content (%) 1 day / Water content (%) 3 days / Water content (%) 7 days: Petri dish without sealing; for Water content (%) 3 days: 3 days at 40° C. / 75% relative humidity; for Water content (%) 7 days: 7 days at 40° C. / 75% relative humidity; for Water content (%) Initial: before storage at 40° C. / 75% relative humidity. How it is done: Hygroscopicity comparison experiments were conducted on each of the crystalline free base compound (Example 1), the crystalline hydrochloride compound (Example 2), the non-crystalline free base compound (Comparative Example 1), the non-crystalline hydrochloride compound (Comparative Example 2) and various crystalline acid addition compounds (Comparative Example 3).
The test compounds were exposed in a Petri dish under accelerated storage conditions at a temperature of 40° C. and a relative humidity of 75% for 7 days without sealing. The water content of each test compound was measured using a Karl-Fischer moisture meter. Table 2 summarizes the water content (%) of each test compound measured during the storage period.

Series [2] is described as follows: Stability comparison test (long-term storage, HPLC of decomposition product of Formula 3 and total impurities). The note with it: for Concentration of decomposition product of Formula 3 (%) 6 months / Total impurity concentration (%) 6 months: 6 months at 25° C. / 60% relative humidity. How it is done: Stability comparison experiments were conducted on each of the crystalline free base compound (Example 1), the crystalline hydrochloride compound (Example 2), the non-crystalline free base compound (Comparative Example 1), the non-crystalline hydrochloride compound (Comparative Example 2) and various crystalline acid addition compounds (Comparative Example 3).
The test compound was stored in a chamber for stability measurement under long-term storage conditions at a temperature of 25° C. and a relative humidity of 60% for 6 months. For storage, each test compound was placed in a double polyethylene bag, and the polyethylene bag was filled with a silica gel pouch and was then placed in a small paper box (fiber drum).
The following Table 3 summarizes the results of the measurement of the concentration of the degradation product of Formula 3 and the total impurity concentration by HPLC analysis after storage under long-term storage conditions for 6 months.
[Analytical Conditions of Liquid Chromatography (HPLC)]
Column temperature: 35° C.
Detector: UV Detector (246 nm)
Gradient condition of mobile phase: […]

Series [3] is described as follows: Evaluation of polymorphic transition (PXRD and DSC after storage). The note with it: for DSC endothermic temperature 4 weeks: 4 weeks at 40° C. / 75% relative humidity in polyethylene bag; for DSC endothermic temperature Initial: initial state; for Comparison and determination results (polymorphic transition): initial vs 4 weeks at 40° C. / 75% relative humidity, PXRD and DSC. How it is done:
In order to determine whether or not the polymorphic transition phenomenon occurs under the storage conditions in the crystalline free base compound (Example 1) and the crystalline hydrochloride compound (Example 2), the results of PXRD analysis in the initial state and the possibility of polymorphic transition over time were examined.
Specifically, the test compound was stored in a polyethylene bag in a chamber for stability measurement at a temperature of 40° C. and a relative humidity of 75% for 4 weeks. Also, PXRD and DSC analysis results, measured at the initial state and after 4 weeks, were compared.

Consider `CCCc1c(-c2ccccc2)nn(-c2ccccn2)c1O` [Comparative Example 1, 3-phenyl-4-propyl-1-(pyridin-2-yl)-1H-pyrazol-5-ol], for which, in series [1], the “Water content (%) 1 day” value was 1.30%, the “Water content (%) 3 days” value is listed as 2.27%, the “Water content (%) 7 days” value stood at 2.95% and the “Water content (%) Initial” value was 0.33%. Besides, in series [2], the “Concentration of decomposition product of Formula 3 (%) 6 months” value (“Concentration … of Formula 3 (%) 6 months” below) amounted to 0.65%, the “Total impurity concentration (%) 6 months” value is reported as 7.58%, the “Concentration of decomposition product of Formula 3 (%) Initial” value (shortened to “Concentration … of Formula 3 (%) Initial”) is 0.06% and the “Total impurity concentration (%) Initial” value was found to be 0.26%.

As for `CCCc1c(-c2ccccc2)nn(-c2ccccn2)c1O` [Succinate, 3-phenyl-4-propyl-1-(pyridin-2-yl)-1H-pyrazol-5-ol], in series [1], the “Water content (%) 1 day” value is reported as 0.42%, the “Water content (%) 3 days” value is listed as 0.44%, the “Water content (%) 7 days” value was found to be 0.48% and the “Water content (%) Initial” value was 0.37%. Also, in series [2], the “Concentration … of Formula 3 (%) 6 months” value is given as 0.38%, the “Total impurity concentration (%) 6 months” value is reported as 1.65%, the “Concentration … of Formula 3 (%) Initial” value stood at 0.09% and the “Total impurity concentration (%) Initial” value was determined as 0.48%.

Consider `CCCc1c(-c2ccccc2)nn(-c2ccccn2)c1O` [Hemi-1,5-naphthalene disulfonate, 3-phenyl-4-propyl-1-(pyridin-2-yl)-1H-pyrazol-5-ol], for which, in series [1], the “Water content (%) 1 day” value is given as 0.12%, the “Water content (%) 3 days” value was determined as 0.13%, the “Water content (%) 7 days” value is given as 0.15% and the “Water content (%) Initial” value was 0.12%. In series [2], the “Concentration … of Formula 3 (%) 6 months” value was 0.35%, the “Total impurity concentration (%) 6 months” value is 1.24%, the “Concentration … of Formula 3 (%) Initial” value is given as 0.08% and the “Total impurity concentration (%) Initial” value is 0.52%.

For the molecule `CCCc1c(-c2ccccc2)nn(-c2ccccn2)c1O.Cl` [Example 2, 3-phenyl-4-propyl-1-(pyridin-2-yl)-1H-pyrazol-5-ol hydrochloride], in series [1] (hydrochloride), the “Water content (%) 1 day” value is 0.31%, the “Water content (%) 3 days” value is 0.37%, the “Water content (%) 7 days” value amounted to 0.39% and the “Water content (%) Initial” value is 0.25%. Also, in series [3], the “DSC endothermic temperature 4 weeks” value amounted to 133.4 °C and the “DSC endothermic temperature Initial” value stood at 134.25 °C. For the same molecule, the “Comparison and determination results (polymorphic transition)” value in series [3] (hydrochloride) is reported as “no polymorphic transition occurred”. In series [2] (hydrochloride), the “Concentration … of Formula 3 (%) 6 months” value is given as 0.08%, the “Total impurity concentration (%) 6 months” value is recorded as 0.45%, the “Concentration … of Formula 3 (%) Initial” value turned out to be 0.03% and the “Total impurity concentration (%) Initial” value amounted to 0.28%.

Consider `CCCc1c(-c2ccccc2)nn(-c2ccccn2)c1O` [Example 1, 3-phenyl-4-propyl-1-(pyridin-2-yl)-1H-pyrazol-5-ol], for which, in series [1], the “Water content (%) 1 day” value is given as 0.29%, the “Water content (%) 3 days” value worked out at 0.32%, the “Water content (%) 7 days” value stood at 0.34% and the “Water content (%) Initial” value turned out to be 0.26%. In addition, in series [3], the “DSC endothermic temperature 4 weeks” value worked out at 72.8 °C; the “DSC endothermic temperature Initial” value turned out to be 73.54 °C; the “Comparison and determination results (polymorphic transition)” value was “no polymorphic transition occurred”. Further, in series [2], the “Concentration … of Formula 3 (%) 6 months” value amounted to 0.09%, the “Total impurity concentration (%) 6 months” value was found to be 0.47%, the “Concentration … of Formula 3 (%) Initial” value is recorded as 0.05% and the “Total impurity concentration (%) Initial” value is 0.32%.

For `CCCc1c(-c2ccccc2)nn(-c2ccccn2)c1O` [L-malate, 3-phenyl-4-propyl-1-(pyridin-2-yl)-1H-pyrazol-5-ol], in series [1], the “Water content (%) 1 day” value is listed as 1.58%, the “Water content (%) 3 days” value was found to be 1.75%, the “Water content (%) 7 days” value was found to be 2.80% and the “Water content (%) Initial” value is 0.45%. In addition, in series [2], the “Concentration … of Formula 3 (%) 6 months” value stood at 0.78%, the “Total impurity concentration (%) 6 months” value was found to be 3.27%, the “Concentration … of Formula 3 (%) Initial” value was determined as 0.12% and the “Total impurity concentration (%) Initial” value is 0.58%.

Turning to `CCCc1c(-c2ccccc2)nn(-c2ccccn2)c1O` [L-tartrate, 3-phenyl-4-propyl-1-(pyridin-2-yl)-1H-pyrazol-5-ol], in series [1], the “Water content (%) 1 day” value was 0.34%, the “Water content (%) 3 days” value is on record as 0.34%, the “Water content (%) 7 days” value is given as 0.38% and the “Water content (%) Initial” value was 0.33%. In series [2], the “Concentration … of Formula 3 (%) 6 months” value worked out at 0.54%, the “Total impurity concentration (%) 6 months” value was found to be 1.85%, the “Concentration … of Formula 3 (%) Initial” value was 0.10% and the “Total impurity concentration (%) Initial” value came out at 0.40%.

For the molecule `CCCc1c(-c2ccccc2)nn(-c2ccccn2)c1O.Cl` [Comparative Example 2, 3-phenyl-4-propyl-1-(pyridin-2-yl)-1H-pyrazol-5-ol hydrochloride], in series [1] (hydrochloride), the “Water content (%) 1 day” value is 1.98%, the “Water content (%) 3 days” value was 3.54%, the “Water content (%) 7 days” value worked out at 7.52% and the “Water content (%) Initial” value came out at 0.31%. In series [2] (hydrochloride), the “Concentration … of Formula 3 (%) 6 months” value came to 0.92%, the “Total impurity concentration (%) 6 months” value was determined as 5.87%, the “Concentration … of Formula 3 (%) Initial” value is on record as 0.05% and the “Total impurity concentration (%) Initial” value was 0.35%.
